Results taken from patent publication US12569576B2, “Compositions and methods for measuring oxidative stress” (Washington University, priority 2020, dated 2026).
Values joined by “and” are separate entries in the source; they are usually repeats but may differ in a detail not shown here. Identical values can stand only once.

How the values were obtained:
[1] = system: A549 cells; experiment: Galuminox uptake in LPS-treated or serum/glucose deprived A549 cells with ROS-attenuating drugs; assay type: cell-based, human; conditions: LPS-treated or nutrient deprived A549 cells; Galuminox 20 μM 60 min
Method: For evaluation of therapeutic effects of drugs, such as Carvedilol (CAR), Dexrazoxane (DEX), and mitoTempo (MT) on either serum/glucose deprived media- or LPS-induced superoxide production, A549 cells were incubated with either LPS (1 μg/mL) or serum/glucose deprived (starvation) media for 24 h, and thereafter incubated with Carvedilol, Dexrazoxane, and mitoTempo 24 h at 37° C. Next day, media was removed from wells, cells were carefully rinsed with PBS (2×200 μL), fresh media (200 μL) was added, and cells were incubated with Galuminox (20 μM) at 37° C. for 60 min. For controls, untreated cells were incubated with Galuminox (20 μM) under identical conditions. Thereafter, fluorescence images were acquired, and cellular uptake was quantified as described above.

[2] = system: A549 cells; experiment: Live cell fluorescence imaging, cellular accumulation in LPS-treated A549 cells; assay type: cell-based, human; conditions: LPS 1 μg/mL 24 h
Method: Human alveolar basal epithelial (A549) adenocarcinoma cells were grown in Dulbecco's Modified Eagle Medium (DMEM) supplemented with 1-glutamine (2 mM), penicillin/streptomycin (200 IU.) and heat-inactivated fetal calf serum (10%). The cells were grown at 37° C. under a 5% CO2 atmosphere.
Live cell fluorescence imaging studies were performed at Washington University Center for Cellular Imaging (WUCCI). For imaging studies, A549 cells or their mt-Keima transfected counterparts were plated onto borosilicate 8-well chambered coverglass (Labtek) and allowed to grow to approximately 70% confluence at 37° C. under 5% CO2 atmosphere in the culture media (200 μL) and treated with LPS (1 μg/mL) for 24 h. Following LPS treatments, all wells were rinsed with fresh media. […] Images were processed and analyzed using the ImageJ software package (NIH). […] For analysis, ROIs were drawn on cells of both channels, scatter plots were obtained, and Pearson's Correlation Coefficients (PCC) were determined as described previously (K. W. Dunn, M. M. Kamocka, J. H. McDonald. A practical guide to evaluating colocalization in biological microscopy. Am. J. Physiol. Cell Physiol., 300 (2011), pp. C723-C742.).

[3] = system: ROS activity in acutely injured lungs; experiment: Preclinical PET/CT imaging, mouse model of LPS-mediated acute lung injury; assay type: in vivo; conditions: for Standard Uptake Value (SUV) in lungs: n=4, frames 45-60 min
Method: All animal procedures were approved by the Washington University Animal Studies Committee. Imaging and biodistribution studies were performed in C57Bl6 mice (average weight, 24 g). Male mice (n=4) were treated either with LPS at a dose of 5 μg/g or vehicle (saline) 24 h prior to imaging/biodistribution studies. For these studies, mice were anesthetized with isoflurane (2.0%) via an induction chamber and maintained with a nose cone. After anesthetization, the mice were secured in a supine position and placed in an acrylic imaging tray. Following intravenous tail-vein administration of ^68Ga-Galuminox (100 μL; 100 μCi; 2% ethanol in saline, 3.7 MBq), dynamic preclinical PET scans were performed over 60 min, using Inveon PET/CT scanner (Siemens Medical Solutions). PET data were stored in list mode, and reconstruction was performed using a 3D-OSEM method with detector efficiency, decay, dead time, attenuation, and scatter corrections applied. For anatomical visualization, PET images were also co-registered with CT images from an Inveon PET/CT scanner. ROIs were drawn over the lung, and standard uptake values (SUV) were calculated as the mean radioactivity per injected dose per animal weight.

[4] = Biodistribution studies (post preclinical imaging); assay type: in vivo, C57Bl6 mice; conditions: for Biodistribution, Bladder / Biodistribution, Blood / Biodistribution, Bone / Biodistribution, Brain / Biodistribution, Colon / Biodistribution, Fat / Biodistribution, Heart / Biodistribution, Intestine / Biodistribution, Kidney / Biodistribution, Liver / Biodistribution, Lung / Biodistribution, Muscle: 60 min, mean, n=4
Source text: All animal procedures were approved by the Washington University Animal Studies Committee. Following microPET/CT imaging, mice (n=4) were euthanized by cervical dislocation. Blood samples were obtained by cardiac puncture, organs then harvested rapidly, and all tissue samples analyzed for γ-activity using Beckman Gamma 8000 counter. All samples were decay-corrected to the time the γ-counter was started. Standard samples were counted with the organs for each animal and represent […] of the injected dose. An additional dose was diluted into milliQ water (100 mL) and aliquots (1 mL) were counted with each mouse. Data were quantified as the percentage injected dose (% ID) per gram of tissue (tissue kBq (injected kBq)^−1 (g tissue)^−1×100) in Table 2, shown below.

[5] = system: left transplanted lung; experiment: MicroPET/CT imaging in mouse lung transplant model of CLAD; assay type: in vivo, mice; conditions: 4 days post left lung transplant; PET/CT 30 min post injection, 20 min static scan
Method: The next experiment was an evaluation of Galuminox in a mouse lung transplant model of CLAD. Allogeneic (FVB) left lung recipients (B16 mice) were treated with immunosuppression agents CD40L and CTLA4Ig to induce tolerance. Despite treatment with immunosuppressant drugs, allogeneic transplants show OB lesions as a function of time, normally defined as early stages of disease progression (early CLAD) and late stages of disease progression (fulminant CLAD).
4 days post left lung transplant from FVB mice (donor) into B16 mice (acceptor), both transplanted mice and un-transplanted control counterparts were imaged using PET/CT 30 minutes post tail-vein administration of ^68Ga-Galuminox using static acquisition scan of 20 min (FIG. 12A). PET images were co-registered with CT for anatomical correlation. Standard Uptake Values (SUVs) were determined by drawing ROI, and counts were normalized to injected dose and weights of animals (FIG. 12B).

[6] = LPS vs saline, 1 h post injection

COc1ccccc1OCCNCC(O)COc1cccc2[nH]c3ccccc3c12 (stereo not drawn) [CAR, Carvedilol]
Galuminox probe uptake in the presence of the drug compared to control A549 cells [1]: significantly decreased

Nc1ccc2c(c1)C(c1ccccc1)N(CCCCCC[P+](c1ccccc1)(c1ccccc1)c1ccccc1)c1cc(N)ccc1-2.[I-] (stereo not drawn) [MitoSOX]
probe fluorescence, LPS stimulated vs untreated A549 control cells [2]: higher fluorescence

C[C@@H](CN1CC(=O)NC(=O)C1)N1CC(=O)NC(=O)C1 [DEX, Dexrazoxane]
Galuminox probe uptake in the presence of the drug compared to control A549 cells [1]: significantly decreased

O=C(CNC(=S)Nc1ccc(CC2CN3CCN4CCN2CC(=O)[O][68Ga]([O]C(=O)C4)[O]C(=O)C3)cc1)Nc1cccc2c(=O)[nH][nH]c(=O)c12 (stereo not drawn) [^68Ga-Galuminox]
SUV time-activity curves, retention in lungs of LPS-treated mice ([3]; 0-60 min dynamic PET): consistently higher and stable retention
Standard Uptake Value (SUV) in lungs ([3]; LPS-treated mice (5 μg/g, 24 h)): 12.9±1.85
mode of excretion (PET pharmacokinetics) ([3]; mouse, in vivo): dominant renal mode of probe excretion
Standard Uptake Value (SUV) in lungs ([3]; saline (vehicle) only treated mice): 2.62±0.48
excretion profiles (biodistribution) ([4]; 1 h post injection): both hepatobiliary- and renal-modes of excretion
Biodistribution, Bladder ([4]; Control (saline)): 162.956 % ID/g
Biodistribution, Blood ([4]; Control (saline)): 2.82±0.88 % ID/g and 2.822 % ID/g
Biodistribution, Bone ([4]; Control (saline)): 1.0±0.34 % ID/g and 1.002 % ID/g
Biodistribution, Brain ([4]; Control (saline)): 0.5693 % ID/g
Biodistribution, Colon ([4]; Control (saline)): 0.8617 % ID/g
Biodistribution, Fat ([4]; Control (saline)): 0.6117 % ID/g
Biodistribution, Heart ([4]; Control (saline)): 2.381 % ID/g
Biodistribution, Intestine ([4]; Control (saline)): 4.286 % ID/g
Biodistribution, Kidney ([4]; Control (saline)): 13.0965 % ID/g
Biodistribution, Liver ([4]; Control (saline)): 6.14±0.66 % ID/g and 6.138 % ID/g
Biodistribution, Lung ([4]; Control (saline)): 39.7±19.3 % ID/g and 39.7 % ID/g
Biodistribution, Muscle ([4]; Control (saline)): 1.084 % ID/g
Biodistribution, Bladder ([4]; LPS treated): 5.893 % ID/g
Biodistribution, Blood ([4]; LPS treated): 3.96±1.83 % ID/g and 3.96 % ID/g
Biodistribution, Bone ([4]; LPS treated): 2.14±0.57 % ID/g and 2.138 % ID/g
Biodistribution, Brain ([4]; LPS treated): 0.2628 % ID/g
Biodistribution, Colon ([4]; LPS treated): 0.2924 % ID/g
Biodistribution, Fat ([4]; LPS treated): 0.3021 % ID/g
Biodistribution, Heart ([4]; LPS treated): 1.073 % ID/g
Biodistribution, Intestine ([4]; LPS treated): 1.314 % ID/g
Biodistribution, Kidney ([4]; LPS treated): 3.048 % ID/g
Biodistribution, Liver ([4]; LPS treated): 10.5±1.68 % ID/g and 10.46 % ID/g
Biodistribution, Lung ([4]; LPS treated): 147.9±25.8 % ID/g and 147.8875 % ID/g
Biodistribution, Muscle ([4]; LPS treated): 0.294 % ID/g
bone retention, LPS vs saline [4, 6]: 2.1 fold
higher retention in lungs of LPS treated mice vs saline-only (biodistribution) [4, 6]: 4 fold
higher retention in the blood of LPS treated mice vs saline [4, 6]: 1.4 fold
liver retention, LPS vs saline [4, 6]: 1.7 fold
higher specific retention in lungs of LPS treated mice (lung normalized to blood) ([4]; lung 4 fold / blood 1.4 fold): 3 fold and 2.85 fold
higher uptake in the left transplanted lung compared with untransplanted mice (SUV) [5]: 1.5 fold

CC1(C)CC(NC(=O)C[P+](c2ccccc2)(c2ccccc2)c2ccccc2)CC(C)(C)N1[O] [Mito-Tempo]
Galuminox probe uptake in the presence of the drug compared to control A549 cells [1]: significantly decreased
